Measured values as given in PubChem BioAssay (NCI).
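Following 48 hours of exposure in 96-well plates, responses at five concentrations were used to interpolate endpoints linearly. GI50: concentration for 50% inhibition of growth. TGI marks complete inhibition of growth.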

Columns and labels:
Experiment in all cases: DTP human tumour cell line panel, 48 h
[1] = test system: DU-145 prostate
[2] = test system: BT-549 breast
[3] = test system: PC-3 prostate
[4] = test system: HS 578T breast
[5] = test system: 786-0 renal
[6] = test system: MDA-N
[7] = test system: T-47D breast
[8] = test system: SR leukemia
[9] = test system: MDA-MB-231 breast
[10] = test system: M19-MEL melanoma
[11] = test system: LXFL 529 NSCLC
[12] = test system: XF 498 CNS
[13] = test system: KM20L2 colon

SMILES	TGI [1]	TGI [2]	TGI [3]	TGI [4]	TGI [5]	TGI [6]	TGI [7]	TGI [8]	TGI [9]	TGI [10]	TGI [11]	TGI [12]	TGI [13]	GI50 [1]	GI50 [3]	GI50 [4]	GI50 [7]	GI50 [8]	GI50 [9]	GI50 [2]
c1ccc(-c2nnc(SCc3c[nH]c4ccccc34)n2-c2ccccc2)cc1	> 100 µM	98.7 µM	93.9 µM	93.5 µM	> 100 µM	> 100 µM	> 100 µM	> 100 µM	> 100 µM											
O=C(Nc1c(C(=O)NC2CCCCC2)[nH]c(=O)[nH]c1=O)c1ccc(Cl)cc1								> 100 µM		> 100 µM	> 100 µM	> 100 µM								
COC1=CC(=O)c2c(cc(COP(=O)(OCC3OC(n4cc(F)c(=O)[nH]c4=O)CC3O)N(C)CCCCCl)n2C)C1=O (stereo not drawn)	33.3 µM	> 100 µM	22.7 µM	2.64 µM	> 69.2 µM	8.86 µM	36.2 µM	> 92.7 µM	35.8 µM											
C=C1C(=O)O[C@@H]2[C@H]1CCC(C)=C1C=CC(=O)[C@]12C								43 µM			26.7 µM									
N=C(N)SCc1cc(Cl)cc(Cl)c1O	36.2 µM	36.6 µM	43.9 µM	72 µM	32.2 µM	33.1 µM	51.8 µM		30.5 µM											
Cc1ccc(C2N=C(N)NC3=C2CCOc2c3ccc3ccccc23)cc1 (stereo not drawn)	> 85.4 µM	> 79.8 µM	> 75 µM	67.7 µM	> 71.7 µM		> 65.3 µM	> 100 µM	32.7 µM											
O=C(O)C1CCC(=O)N1S(=O)(=O)c1ccccc1 (stereo not drawn)										> 100 µM		> 100 µM	> 100 µM							
COc1ccc(-c2nn(-c3cccc(NC(=O)Nc4ccccc4)c3)cc2-c2ccncc2)cc1Cl	5.87 µM		4.5 µM	7.94 µM			5.39 µM	6.69 µM	8.01 µM					2.47 µM	1.84 µM	2.46 µM	2.19 µM	2.35 µM	2.53 µM	
CCOc1ccc(/C(C=O)=C(\Cl)c2ccc(OC)c(OC)c2)cc1										> 100 µM	> 100 µM	79.2 µM	> 100 µM							
O=c1cc(N2CCCC2)[nH]c(=O)n1-c1ccc(F)cc1	> 100 µM	> 100 µM	> 100 µM	> 100 µM	> 100 µM	> 100 µM	> 100 µM		> 100 µM											
Clc1ccc(CNc2nc(Cl)c3[nH]cnc3n2)cc1Cl	> 100 µM	84.5 µM	> 100 µM	50.8 µM	> 100 µM	> 100 µM	51.3 µM	77.6 µM	> 100 µM											
Cc1cc(S(=O)(=O)NC2=NC(c3ccccc3)c3cc(Cl)ccc3N2)c(S)cc1Cl (stereo not drawn)	> 100 µM	> 100 µM	> 100 µM	> 100 µM	> 100 µM	> 100 µM	> 100 µM	> 100 µM	> 100 µM											
Cc1cc2c(C(C)C)c(O)c(O)c(C=NCCO)c2c(O)c1-c1c(C)cc2c(C(C)C)c(O)c(O)c(C=NCCO)c2c1O					4.83 µM			3.78 µM		3.62 µM	3.05 µM	8.43 µM								
CO/C(=C/C(=O)C(Cl)(Cl)Cl)CC/C(=C\C(=O)C(Cl)(Cl)Cl)OC	56.7 µM	83.2 µM	87.7 µM	> 100 µM	60.4 µM	66 µM	72.5 µM	51.7 µM	> 100 µM											
CN1C[C@H]2[C@@H](C1=O)[C@H](c1ccccc1)ON2C	> 100 µM		> 100 µM	> 100 µM		> 100 µM	> 100 µM	> 100 µM	> 100 µM											
COC(=O)[C@@]1(Cc2ccc(O)cc2)C[C@@H]2Cc3ccccc3N2N1	> 100 µM	> 100 µM	> 100 µM	> 100 µM	> 100 µM	> 100 µM	> 100 µM	> 100 µM	> 100 µM											

SMILES	TGI [1]	TGI [2]	TGI [3]	TGI [4]	TGI [5]	TGI [6]	TGI [7]	TGI [8]	TGI [9]	TGI [10]	TGI [11]	TGI [12]	TGI [13]	GI50 [1]	GI50 [3]	GI50 [4]	GI50 [7]	GI50 [8]	GI50 [9]	GI50 [2]
COc1c2c(cc3c1OCO3)C13C=CC(OC)CC1N(CC3)C2 (stereo not drawn)	> 100 µM	> 100 µM	> 100 µM	> 100 µM	> 100 µM	> 100 µM	> 100 µM	22.2 µM	> 100 µM											
CC(=O)OCC1=C(C(=O)O)C(c2ccc3c(c2)OCO3)c2cc3c(cc2O1)OCO3 (stereo not drawn)										> 100 µM		> 100 µM	> 100 µM							
O=c1c2ccccc2nc2n1C(c1ccc([N+](=O)[O-])cc1)C2(c1ccccc1)c1ccccc1 (stereo not drawn)	> 100 µM	> 100 µM	> 100 µM	> 100 µM	> 100 µM	> 100 µM	> 100 µM		> 100 µM											
CCC(=O)NC(Nc1cccc(F)c1)(C(F)(F)F)C(F)(F)F	> 100 µM	> 100 µM	> 100 µM	> 100 µM		> 100 µM	> 100 µM	> 100 µM	> 100 µM											
NC1(C(=O)O)CCc2ccc(N(CCCl)CCCl)cc2C1 (stereo not drawn)										> 100 µM		> 100 µM	> 100 µM							
CCCC(N)C(=O)c1ccccc1 (stereo not drawn)					> 100 µM			> 100 µM			> 100 µM	> 100 µM	> 100 µM							
O=C(Nc1ccc(Sc2ccc(N=Nc3c(O)c(S(=O)(=O)O)cc4cc(S(=O)(=O)O)ccc34)cc2)cc1)c1ccc(N=Nc2c(O)ccc3c(S(=O)(=O)O)cc(S(=O)(=O)O)cc23)cc1					> 100 µM			85.2 µM		68.6 µM	> 100 µM	91.7 µM	> 100 µM							
Cc1cc(C)c2c(c1)C1=NCCN1C2(O)c1ccc(Cl)cc1 (stereo not drawn)	40.5 µM	26.4 µM	36.3 µM	32 µM	29.6 µM	28.3 µM	41.7 µM	62 µM	28.2 µM											
COC(=O)/C=C(/C(=O)OC)c1cc2ccc3c([nH]c4ccccc43)c(C)c-2c1	42.2 µM	23.1 µM	14.2 µM	8.91 µM	20.1 µM	9.9 µM	> 100 µM	8.59 µM	15.1 µM											
COc1cc(C(=O)C2C(=O)c3ccccc3C2C2(O)c3ccccc3CC2C(O)c2cc(OC)c(OC)c(OC)c2)cc(OC)c1OC (stereo not drawn)	> 100 µM	> 100 µM	> 100 µM	> 100 µM	> 100 µM	> 100 µM	> 100 µM	> 100 µM	> 100 µM											
N#CCCN(CCC#N)c1ccc(C(N=Nc2ccccc2)=Nc2ccc(Cl)cc2)cc1	> 100 µM	> 100 µM	> 100 µM	> 100 µM	> 100 µM	> 100 µM	> 100 µM		> 100 µM											
Fc1ccc(-c2nn3c(-c4cc(C(F)(F)F)cc(C(F)(F)F)c4)nnc3s2)cc1	> 50 µM	> 50 µM	> 50 µM	> 50 µM					> 50 µM					> 50 µM	> 50 µM	1.76 µM			1.79 µM	> 50 µM
N#CC(Nc1cccc(C(F)(F)F)c1)c1ccccc1C(F)(F)F (stereo not drawn)								25.9 µM		18 µM	15.7 µM	12.9 µM	28.4 µM							
Cc1c(-c2ccccc2)c(C#N)c2nnn(C3CCCCC3)c(=O)n12	> 100 µM	> 100 µM	> 100 µM	> 100 µM	> 100 µM	> 100 µM	> 100 µM	> 100 µM	66 µM											
CC(C)(C)OC(=O)NCCC(=O)NC1(c2cc3ccccc3s2)CCCCC1	33.6 µM	32.5 µM	37 µM	48.8 µM	35.7 µM	34.2 µM	33.3 µM		38.4 µM											
CCCCCCCNC(P(=O)(O)O)P(=O)(O)O	> 100 µM	> 100 µM	> 100 µM	97.5 µM	> 100 µM	> 100 µM	> 100 µM	> 100 µM	> 100 µM											
